Reference: the supplement of paper PMC10627819

Experiments:
B. subtilis 168 [1] = test: fitness (endpoint OD595 vs no drug) (fraction); higher = more growth
Method in brief: (§1)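 At 37 °C, bacteria in TSB, LB Lennox or CY were grown in 384-well plates from a starting OD595 of 0.01. OD595 was measured every 30 min for 14 h, with the first reading used as background. Fitness is the optical density at the switch to stationary phase as a fraction of the robust mean of no-drug control wells, capped at 1.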

S. aureus DSM 20231 [2] = test: as above
Method in brief: as §1

S. aureus Newman [3] = test: as above
Method in brief: as §1

S. pneumoniae D39V [4] = test: as above
Method in brief: as §1

B. subtilis 168 [5] = test: Bliss interaction score (quartile over a dose matrix) (fitness difference); higher = more antagonism (negative = synergy)
Method in brief: (§2)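 Quartiles summarise the Bliss score over technical, biological and donor/recipient replicates, where the score is observed minus expected fitness under a product model. Expected fitness uses single-drug values inferred from combination data. Fitness is OD595 at entry into stationary phase over the plate's robust no-drug mean, capped at 1.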

S. aureus DSM 20231 [6] = test: as above
Method in brief: as §2

S. aureus Newman [7] = test: as above
Method in brief: as §2

S. pneumoniae D39V [8] = test: as above
Method in brief: as §2
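Wherever Bliss interaction score (quartile over a dose matrix) is given: first quartile when negative (synergy) and third quartile when positive (antagonism).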

COc1c(N2C[C@@H]3CCCN[C@@H]3C2)c(F)cc2c(=O)c(C(=O)O)cn(C3CC3)c12 [Moxifloxacin] + Cc1onc(-c2ccccc2)c1C(=O)N[C@@H]1C(=O)N2[C@@H]1SC(C)(C)[C@@H]2C(=O)O [Oxacillin]
Conditions | fitness
B. subtilis 168 [1], first compound 0.0312 µg/mL, partner 0.0078 µg/mL | 0.064
B. subtilis 168 [1], first compound 0.0312 µg/mL, partner 0.0155 µg/mL | 0.0573
B. subtilis 168 [1], first compound 0.0312 µg/mL, partner 0.031 µg/mL | 0.0475
B. subtilis 168 [1], first compound 0.0625 µg/mL, partner 0.0078 µg/mL | 0.0466
B. subtilis 168 [1], first compound 0.0625 µg/mL, partner 0.0155 µg/mL | 0.037
B. subtilis 168 [1], first compound 0.0625 µg/mL, partner 0.031 µg/mL | 0.0491
B. subtilis 168 [1], first compound 0.125 µg/mL, partner 0.0078 µg/mL | 0.0548
B. subtilis 168 [1], first compound 0.125 µg/mL, partner 0.0155 µg/mL | 0.0482
B. subtilis 168 [1], first compound 0.125 µg/mL, partner 0.031 µg/mL | 0.0479
B. subtilis 168 [1], first compound 2 µg/mL, partner 0.002 µg/mL | 0.0356
B. subtilis 168 [1], first compound 2 µg/mL, partner 0.004 µg/mL | 0.0464
B. subtilis 168 [1], first compound 2 µg/mL, partner 0.008 µg/mL | 0.0465
B. subtilis 168 [1], first compound 4 µg/mL, partner 0.002 µg/mL | 0.0347
B. subtilis 168 [1], first compound 4 µg/mL, partner 0.004 µg/mL | 0.0433
B. subtilis 168 [1], first compound 4 µg/mL, partner 0.008 µg/mL | 0.0406
B. subtilis 168 [1], first compound 8 µg/mL, partner 0.002 µg/mL | 0.0147
B. subtilis 168 [1], first compound 8 µg/mL, partner 0.004 µg/mL | 0.021
B. subtilis 168 [1], first compound 8 µg/mL, partner 0.008 µg/mL | 0.0219
S. aureus DSM 20231 [2], first compound 0.0075 µg/mL, partner 0.0156 µg/mL | 0.665
S. aureus DSM 20231 [2], first compound 0.0075 µg/mL, partner 0.0312 µg/mL | 0.623
S. aureus DSM 20231 [2], first compound 0.0075 µg/mL, partner 0.0625 µg/mL | 0.483
S. aureus DSM 20231 [2], first compound 0.015 µg/mL, partner 0.0156 µg/mL | 0.621
S. aureus DSM 20231 [2], first compound 0.015 µg/mL, partner 0.0312 µg/mL | 0.576
S. aureus DSM 20231 [2], first compound 0.015 µg/mL, partner 0.0625 µg/mL | 0.475
S. aureus DSM 20231 [2], first compound 0.03 µg/mL, partner 0.0156 µg/mL | 0.561
S. aureus DSM 20231 [2], first compound 0.03 µg/mL, partner 0.0312 µg/mL | 0.527
S. aureus DSM 20231 [2], first compound 0.03 µg/mL, partner 0.0625 µg/mL | 0.417
S. aureus Newman [3], first compound 0.0075 µg/mL, partner 0.0156 µg/mL | 0.676
S. aureus Newman [3], first compound 0.0075 µg/mL, partner 0.0312 µg/mL | 0.633
S. aureus Newman [3], first compound 0.0075 µg/mL, partner 0.0625 µg/mL | 0.515
S. aureus Newman [3], first compound 0.015 µg/mL, partner 0.0156 µg/mL | 0.575
S. aureus Newman [3], first compound 0.015 µg/mL, partner 0.0312 µg/mL | 0.487
S. aureus Newman [3], first compound 0.015 µg/mL, partner 0.0625 µg/mL | 0.417
S. aureus Newman [3], first compound 0.03 µg/mL, partner 0.0156 µg/mL | 0.116
S. aureus Newman [3], first compound 0.03 µg/mL, partner 0.0312 µg/mL | 0.0437
S. aureus Newman [3], first compound 0.03 µg/mL, partner 0.0625 µg/mL | 0.0665
S. pneumoniae D39V [4], first compound 0.0037 µg/mL, partner 0.01 µg/mL | 0.885
S. pneumoniae D39V [4], first compound 0.0037 µg/mL, partner 0.02 µg/mL | 0.769
S. pneumoniae D39V [4], first compound 0.0037 µg/mL, partner 0.04 µg/mL | 0.191
S. pneumoniae D39V [4], first compound 0.005 µg/mL, partner 0.01 µg/mL | 0.991
S. pneumoniae D39V [4], first compound 0.005 µg/mL, partner 0.02 µg/mL | 1
S. pneumoniae D39V [4], first compound 0.0075 µg/mL, partner 0.01 µg/mL | 0.9
S. pneumoniae D39V [4], first compound 0.0075 µg/mL, partner 0.02 µg/mL | 0.784
S. pneumoniae D39V [4], first compound 0.0075 µg/mL, partner 0.04 µg/mL | 0.198
S. pneumoniae D39V [4], first compound 0.01 µg/mL, partner 0.01 µg/mL | 0.993
S. pneumoniae D39V [4], first compound 0.01 µg/mL, partner 0.02 µg/mL | 0.983
S. pneumoniae D39V [4], first compound 0.015 µg/mL, partner 0.01 µg/mL | 0.84
S. pneumoniae D39V [4], first compound 0.015 µg/mL, partner 0.02 µg/mL | 0.814
S. pneumoniae D39V [4], first compound 0.015 µg/mL, partner 0.04 µg/mL | 0.276
S. pneumoniae D39V [4], first compound 0.02 µg/mL, partner 0.01 µg/mL | 0.993
S. pneumoniae D39V [4], first compound 0.02 µg/mL, partner 0.02 µg/mL | 0.978

fitness, one replicate
Conditions | partner 0.0156 µg/mL | partner 0.0312 µg/mL | partner 0.0625 µg/mL | partner 0.075 µg/mL | partner 0.15 µg/mL | partner 0.3 µg/mL
B. subtilis 168 [1], first compound 0.0312 µg/mL | – | – | – | 0.0346 | 0.0314 | 0.0247
B. subtilis 168 [1], first compound 0.0625 µg/mL | – | – | – | 0.0324 | 0.0252 | 0.0441
B. subtilis 168 [1], first compound 0.125 µg/mL | – | – | – | 0.0269 | 0.0127 | 0.018
S. aureus DSM 20231 [2], first compound 0.06 µg/mL | 0.628 | 0.559 | 0.524 | – | – | –
S. aureus DSM 20231 [2], first compound 0.12 µg/mL | 0.441 | 0.379 | 0.37 | – | – | –

Conditions | Bliss interaction score
B. subtilis 168 [5] | 0.0214
S. aureus DSM 20231 [6] | 0.0441
S. aureus Newman [7] | -0.0642
S. pneumoniae D39V [8] | 0.0911
